The values that follow come from patent US10813956B2, “Methods for making and using antimicrobial peptides” (REGENTS OF THE UNIVERSITY OF MINNESOTA, priority 2012, dated 2020).

The test system of test [1] is E. coli. The test is classed as cell-based, Escherichia coli. The procedure:
(§1) MICs of the synthetic AMPs were determined in triplicate by a liquid growth inhibition microdilution assays in flat-bottom sterile polypropylene 96-well plates (Maxisorp, Nunc, Roskilde, Denmark), in a final volume of 150 μl. The bacteria were diluted 2% in fresh media and grown to an OD600=0.5±0.05 (OD600=1≈10^9 cells/ml). The cells were diluted 50-fold to 10^7 cells/ml in fresh media. The AMP stocks were serially diluted (150 μl/well) in liquid growth media in a 96-well plate, covering a concentration range of 1,000 μg/ml-1 ng/ml. Briefly, 150 μl of the serially diluted AMPs were inoculated with 5 μl of the bacterial strains to achieve a final indicator concentration of 3×10^5 cells/ml. For each strain a row with no peptide was included as growth control, and for each test a row of medium-only wells was included as a sterility control. Plates were then incubated at 37° C. for 16-20 h without shaking, and growth inhibition was assessed measuring OD600 using a microplate reader (SpectraMax® Plus384; Molecular Devices, Sunnyvale, Calif., USA). MICs were identified as the lowest antimicrobial concentration where the OD600 […].

Test [2] concerns L. lactis IL1403. Description: MIC of synthetic AMPs, liquid growth inhibition microdilution assay. The test is classed as cell-based, Lactococcus lactis. Particulars: synthetic peptide; for L. lactis growth inhibition: all concentrations tested (up to 1 mg/ml). How it is done: as §1
Background: Dilution methods test growth across graded concentrations, often in twofold steps.

For test [3], the system named is E. coli. In words: Antimicrobial activity of supernatants from recombinant L. lactis (CFU/ml and OD600). The test is classed as cell-based, Escherichia coli. To be noted: 6 h post-inoculation; supernatant of recombinant L. lactis; pathogenic and non-pathogenic E. coli. How it is done: (§2) The loss of cell viability was monitored to determine the antimicrobial activity of the supernatants from the recombinant L. lactis strains. Briefly, 0.3 ml of fresh medium, individually inoculated with the target strains, was added to tubes containing 0.7 ml of the supernatants, to reach a final concentration of 1×10^3 cells/ml. As a control, a supernatant sample from the L. lactis strain containing only the expression vector pMSP3545 (C-SN) was used. Tubes were incubated at 37° C. with agitation. Samples were taken at 30 min, 2 and 6 h, and the number of colony forming units per ml (CFU/ml) was determined by plating 25 μl on LB agar plates. The plates were incubated for 16 h at 37° C., and the number of viable cells was assessed by counting CFUs. Additionally, the OD600 was monitored up to 15 h post-inoculation to follow the influence of AMPs on culture growth.
(§3) Growth of pathogenic and non-pathogenic E. coli strains was assessed in medium containing these AMP-SNs while only pathogenic Salmonella strains were tested. In all cases, AMP-SNs diluted 7:3 with LB were inoculated with each indicator strain and growth was monitored spectrophotometrically at 600 nm for 15 hr.

Test [4] deals with Salmonella. The test is described as above. The test is classed as cell-based. How it is done:
as §2, §3

The test system of test [5] is S. infantis. Description: Antimicrobial activity of supernatants from recombinant L. lactis (culture titer). The test is classed as cell-based, Salmonella infantis. Particulars: FIG. 3a; by 2 h post-inoculation. How it is done:
as §2, §3

Test [6] deals with S. typhimurium. The description is as above. The test is classed as cell-based, Salmonella typhimurium. Particulars: FIG. 3a; by 2 h post-inoculation. The procedure: as §2, §3

≈ marks a conversion by molar mass, not a printed value. Entries after “also recorded” stand apart in the source; their conditions may differ. Residues, ends and D or L forms follow the SMILES beside them.

`CC[C@H](C)[C@H](NC(=O)CNC(=O)[C@H](CCCCN)NC(=O)[C@@H](NC(=O)[C@H](CC(C)C)NC(=O)[C@H](CO)NC(=O)CNC(=O)[C@H](CC(C)C)NC(=O)CNC(=O)[C@H](C)NC(=O)[C@H](CCCCN)NC(=O)[C@H](Cc1ccccc1)NC(=O)[C@@H](NC(=O)[C@H](CC(=O)O)NC(=O)[C@H](CCCCN)NC(=O)[C@H](CC(C)C)NC(=O)CN)[C@@H](C)CC)C(C)C)C(=O)N[C@@H](C)C(=O)N[C@@H](C)C(=O)N[C@@H](Cc1c[nH]cn1)C(=O)N[C@H](C(=O)N[C@@H](C)C(=O)N[C@@H](CC(N)=O)C(=O)O)C(C)C` [Alyteserin, Alyteserin-1a] (H-GLKDIFKAGLGSLVKGIAAHVAN-OH; N-terminus and C-terminus assumed): the “MIC against indicator E. coli strains” value in test [1] was determined as 500 µg/mL (≈ 219 µM). In addition, in test [2], the “L. lactis growth inhibition” value is “not achieved”. Also, the “Concentration up to which L. lactis remained viable” value in test [2] (highest concentration tested) is above 1 mg/mL. The “E. coli culture density/concentration reduction relative to C-SN” value in test [3] turned out to be 20 fold. Also, the “Salmonella growth (rate) reduction relative to C-SN” value in test [4] (10 to 15 h post-inoculation) was 15%. In addition, the “S. infantis culture density/growth reduction relative to C-SN (fraction)” value in test [5] was “about one-half”. The “S. typhimurium culture density reduction relative to C-SN” value in test [6] worked out at 10 fold.
Turning to `CC(C)C[C@H](NC(=O)[C@H](Cc1ccc(O)cc1)NC(=O)[C@@H]1CCCN1C(=O)[C@H](CCCNC(=N)N)NC(=O)[C@@H]1CCCN1C(=O)[C@H](CCCCN)NC(=O)[C@H](CC(=O)O)NC(=O)[C@@H]1CCCN1C(=O)[C@@H](N)CCCNC(=N)N)C(=O)N1CCC[C@H]1C(=O)N[C@@H](CCCNC(=N)N)C(=O)N1CCC[C@H]1C(=O)N[C@@H](CCCNC(=N)N)C(=O)N1CCC[C@H]1C(=O)N1CCC[C@H]1C(=O)N[C@@H](CCCNC(=N)N)C(=O)N1CCC[C@H]1C(=O)N[C@H](C(=O)N[C@@H](CCCNC(=N)N)C(=O)O)C(C)C` [A3APO, A3APO (single chain)] (H-RPDKPRPYLPRPRPPRPVR-OH; N-terminus and C-terminus assumed), the “L. lactis growth inhibition” value in test [2] is given as “not inhibited; also recorded: not achieved”. Further, the “Salmonella growth inhibition at longer times” value in test [4] (10-15 h post-inoculation, versus C-SN) is “not observed”. Also, in test [5], the “S. infantis culture density reduction relative to C-SN” value was determined as 20 fold. In test [6], the “S. typhimurium culture density reduction relative to C-SN” value turned out to be 4 fold.
